Measurements taken from patent US8987449B2, “Medicine for treating ischemic brain injury and its sequelae, and preparation method thereof” (Haimin Lei, priority 2011, dated 2015).

Test system: chicken chorioallantoic membrane (CAM)
Assay: Effect of LQC-T on CAM angiogenesis (CAM method, vessel count)
Type: in vivo
Settings: 20 μg/chicken embryo
Method: Embryonated chicken eggs of Lohmann of German, egg weight 50-60 g (embryo experiment center of Chinese Agriculture University)
LQC-T (1-6) (prepared by the methods of examples 2-7), wherein the purity was ≧98%, determined by high performance liquid chromatography (HPLC), meeting the requirements of the experiment. The powder was carefully sealed and preserved at 4° C.
Aseptic gelatin sponge, which was made into a wafer having a diameter of 5 mm by a hole-puncher in advance, was used as sample carrier. The prepared LQC-T series compounds were added according to 20 μg/chicken embryo in an aseptic environment. The 0.9% physiological saline was used in a blank group. The samples were air-dried in an aseptic environment.
A hatching egg after disinfection was put into a 37° C. incubation box with air sac upward until the seventh day of incubation. The egg embryo was disinfected using alcohol at a super clean bench, and then a small hole was drilled at the top of the egg embryo using a dental drill, and the nearby egg shell and shell membrane were removed carefully to form the opening with the size of about 1.2 cm×1.2 cm. After spotting the location for applying the sample, the air sac was broken with injection needle at the interface between air sac and the yolk and then 1-2 drops of aseptic physiological saline was injected so that the air sac membrane was separated from CAM membrane. Then the upper air sac membrane was slightly removed with a nipper to expose the lower CAM membrane.
The medicine-containing carrier was softly put by a nipper at the locations of CAM and yolk cyst membrane with fewer vessels, the opening was then sealed with aseptic transparent tape and incubation was continued for another 72 h.
After the incubation, the transparent tape blocking the chicken embryo air sac was removed with a nipper. The liquid of equal-volumetrically mixed methanol/acetone 1-2 ml was added and fixed at room temperature for 10 min. The CAM membrane was carefully removed and put it onto a slide. Then it was observed and a photograph was taken. The effect of the compounds on angiogenesis was evaluated by the count analytic method using the numbers of great vessels, medium vessels and small vessels arranged radially around by the carrier.
All the data were statistically analyzed using SPSS11.0 software pack. The difference between the administration group and the blank group was given through one-way variance analysis. P<0.05 had statistical significance.

COc1cc(C(=O)OCc2nc(C)c(C)nc2C)ccc1OCc1nc(C)c(C)nc1C [LQC-T4, (3,5,6-trimethylpyrazine-2-yl)methyl 3-methoxy-4-((3,5,6-trimethylpyrazine-2-yl)methoxy) benzoate]
small vessel angiogenesis of CAM model, Medicine group (X ± S) (72 h incubation, number of small vessels, blank group 8.67 ± 1.03): 14.4 ± 2.16 | effect on growth of new (small) vessels compared with the blank group (result in words): significant promoting effect
